Measured values taken from patent US20240366594A1, “Small Molecule Inhibitors of Formation of Neutrophil-Derived Extracellular Traps (NETosis) and Uses Thereof” (The Brigham and Women's Hospital, Inc., priority 2021, published 2024).

Tests used:
[1] = tested on: human neutrophils; assay: Citrullinated histone H3 (CitH3) NET induction in PMA-stimulated human neutrophils; type: cell-based; details: for NETosis (anti-CitH3 signal), comparison of class I/IIb and class IIb selective inhibitors: drugs 10, 2, 0.4, 0.08 μM 1 hour, then 1 μM PMA 3 hours, FIG. 5F
Protocol: FIGS. 1A-H. Class I/II HDACs drive NET formation • (A and B) Freshly purified human (A) or mouse (B) neutrophils were treated with the indicated HDAC inhibitors at different doses (10, 2, 0.4, 0.08 μM), or with GSK484 (10 μM), for 1 h and then stimulated with 1 μM PMA for 3 h. Cells were fixed and stained with anti-citrullinated histone H3 (CitH3) antibody. NETosis induction was measured as the level of anti-CitH3 fluorescent signal. PMA alone represents 100% of NET induction. “-”: Cells treated with the highest dose of the indicated drug but not activated with PMA. • (C and D) Human neutrophils were treated, or not, with ricolinostat or GSK484 and then stimulated with 1 μM PMA. NETosis induction was measured as area of nuclei stained with DAPI. (C) 3D reconstruction of nuclei in each treatment (grid size 7.8 μm). (D) Quantification of DAPI signal from multiple fields of view (D) (n=9 for unstimulated, not pretreated with any drug [NT] and ricolinostat, n=7 for GSK484). • (E and F) Human neutrophils were treated as in (C-D), and immunoblot analysis of the indicated proteins was performed. Relative quantification of band intensity was analyzed with ImageJ software (F). White violins plots depict the quantification of histone H3 acetylation; red violin plots depict the quantification of histone H3 citrullination. Immunoblot in E is representative of four independent experiments. Gasdermin D NT, gasdermin D N terminal; pMLKL, phospho-MLKL. • (G) Human (left) or murine (right) neutrophils were treated, or not, with ricolinostat (10 μM) and then stimulated with 1 μM PMA for 3 h. ROS production was measured by luminescence with luminol-HRP. Histograms represent the total amount of ROS produced overtime. • (H) Murine neutrophils were treated, or not, with ricolinostat (10 μM) and then stimulated with fluorescent E. coli at the indicated multiplicity of infection (MOI) for 1 h. The histogram represents the percentage of neutrophils positive for E. coli staining. Graphs show mean±SEM. Statistics were calculated using one-way ANOVA (A, B, D) and two-way ANOVA (F, G, H) (*p<0.05; **p<0.01; ****p<0.0001. n.s., not significant). Statistics refers to the comparison with neutrophils stimulated with PMA alone (A, B). Gray stars represent comparison of all experimental groups with the unstimulated control, and black stars represent comparison between drug-treated groups and cells treated with PMA only (NT) (D). See also FIGS. 5A-J.
FIGS. 5A-J. Class I/II HDACs drive NET formation. • A) Quantification of extracellular DNA released by neutrophils treated, or not, with 1 μM GSK484 for 1 h and then stimulated with 1 μM PMA for 4 hours. Unstimulated, neutrophils not treated with drugs were used as a control. • B) Freshly purified human neutrophils were treated with the indicated HDAC inhibitors at different doses (0.08, 0.4, 2 and 10 μM) for 1 hour. Extracellular DNA release was assessed in the supernatant 3 hours after PMA stimulation. The dotted line represents the amount of DNA released from neutrophils treated with PMA alone. “-”: cells treated with the highest dose of the indicated drug but not activated with PMA. • C) Freshly purified human neutrophils were stimulated for 1 h, 3 h or 5 h. Cells were fixed and stained with an anti-CitH3 antibody. NETosis induction was measured as level of anti-CitH3 fluorescent signal. 5h-PMA treatment represents 100% NET induction. • D) Representative images of freshly isolated human neutrophils treated or not with 10 μM of the indicated drugs and stimulated with 1 μM PMA for 3 hours. Cells were fixed and then stained for CitH3 (red) and nuclei (blue). Scale bar=100 μm. • E) Murine neutrophils were treated with ricolinostat or GSK484 and then stimulated with […] for 3 hours. NET induction was measured as in (C). […]

[2] = tested on: mouse neutrophils; assay: Citrullinated histone H3 (CitH3) NET induction in PMA-stimulated mouse neutrophils; type: cell-based
Protocol: FIGS. 1A-H. Class I/II HDACs drive NET formation • (A and B) Freshly purified human (A) or mouse (B) neutrophils were treated with the indicated HDAC inhibitors at different doses (10, 2, 0.4, 0.08 μM), or with GSK484 (10 μM), for 1 h and then stimulated with 1 μM PMA for 3 h. Cells were fixed and stained with anti-citrullinated histone H3 (CitH3) antibody. NETosis induction was measured as the level of anti-CitH3 fluorescent signal. PMA alone represents 100% of NET induction. “-”: Cells treated with the highest dose of the indicated drug but not activated with PMA. • (C and D) Human neutrophils were treated, or not, with ricolinostat or GSK484 and then stimulated with 1 μM PMA. NETosis induction was measured as area of nuclei stained with DAPI. (C) 3D reconstruction of nuclei in each treatment (grid size 7.8 μm). (D) Quantification of DAPI signal from multiple fields of view (D) (n=9 for unstimulated, not pretreated with any drug [NT] and ricolinostat, n=7 for GSK484). • (E and F) Human neutrophils were treated as in (C-D), and immunoblot analysis of the indicated proteins was performed. Relative quantification of band intensity was analyzed with ImageJ software (F). White violins plots depict the quantification of histone H3 acetylation; red violin plots depict the quantification of histone H3 citrullination. Immunoblot in E is representative of four independent experiments. Gasdermin D NT, gasdermin D N terminal; pMLKL, phospho-MLKL. • (G) Human (left) or murine (right) neutrophils were treated, or not, with ricolinostat (10 μM) and then stimulated with 1 μM PMA for 3 h. ROS production was measured by luminescence with luminol-HRP. Histograms represent the total amount of ROS produced overtime. • (H) Murine neutrophils were treated, or not, with ricolinostat (10 μM) and then stimulated with fluorescent E. coli at the indicated multiplicity of infection (MOI) for 1 h. The histogram represents the percentage of neutrophils positive for E. coli staining. Graphs show mean±SEM. Statistics were calculated using one-way ANOVA (A, B, D) and two-way ANOVA (F, G, H) (*p<0.05; **p<0.01; ****p<0.0001. n.s., not significant). Statistics refers to the comparison with neutrophils stimulated with PMA alone (A, B). […]
FIGS. 5A-J. Class I/II HDACs drive NET formation. • A) Quantification of extracellular DNA released by neutrophils treated, or not, with 1 μM GSK484 for 1 h and then stimulated with 1 μM PMA for 4 hours. […] Extracellular DNA release was assessed in the supernatant 3 hours after PMA stimulation. […] NETosis induction was measured as level of anti-CitH3 fluorescent signal. […] NET induction was measured as in (C). […]

How did the “NET formation (level of CitH3), two independent donors” value ([1]; 10, 2, 0.4, 0.08 μM for 1 h, then 1 μM PMA, FIGS. 5H, 5I) turn out when `O=C(CCCCCCNC(=O)c1cnc(N(c2ccccc2)c2ccccc2Cl)nc1)NO` [citarinostat] was run?
The value was “inhibited NET formation to a comparable extent”.

And the “NET formation (level of CitH3)” value ([2]; murine neutrophils, PMA, FIG. 5J)?
Its value is “inhibited NET formation to a comparable extent”.

How did the “NET induction, measured as CitH3 staining” value ([1]; drugs 10, 2, 0.4, 0.08 μM or GSK484 10 μM for 1 h, then 1 μM PMA 3 h, FIGS. 1A and 5D) turn out when `Nc1ccccc1NC(=O)c1ccc(CNC(=O)OCc2cccnc2)cc1` [entinostat] was run?
Its value is “prevented NET release in a dose-dependent manner with an efficacy comparable with GSK484”.

What about the “release of CitH3 (NET induction)” value ([2]; drugs 10, 2, 0.4, 0.08 μM for 1 h, then 1 μM PMA 3 h, FIG. 1B) of the same compound?
Its value is “no effect”.

`CCCCN(Cc1ccc(C(=O)NO)cc1)C(=O)Nc1ccccc1` [nexturastat] was tested. Which “NETosis (anti-CitH3 signal), comparison of class I/IIb and class IIb selective inhibitors” value [1] did it give?
Its value is “selective class IIb targeting did not”.

With `O=C(CCCCCCC(=O)Nc1ccc([C@H]2O[C@@H](CSc3nc(-c4ccccc4)c(-c4ccccc4)o3)C[C@@H](c3ccc(CO)cc3)O2)cc1)NO` [tubacin] as the compound, how does the “NETosis (anti-CitH3 signal), comparison of class I/IIb and class IIb selective inhibitors” value [1] read?
The value was “class I/IIb HDAC inhibition prevented NETosis”.

`CN1CCc2c(c3ccccc3n2Cc2ccc(C(=O)NO)cc2)C1` [tubastatin A] was tested. Which “NETosis (anti-CitH3 signal), comparison of class I/IIb and class IIb selective inhibitors” value [1] did it give?
Its value is “selective class IIb targeting did not”.
